# Reference: patent EP4371976B1, “IONIZABLE LIPIDS AND LIPID NANOPARTICLES CONTAINING THEREOF” (Certest Biotec, S.L., priority 2022, dated 2024)
# How the values were obtained:
# Female BALB/c mice = assay: Firefly luciferase expression (total flux, IVIS imaging) in mice after injection of mRNA-loaded LNPs; format: in vivo; settings: for protein expression in mice (transfection results): Figure 1 legend, LNPs containing RNA; for Total Flux: Table 8, mice, intramuscular, 5 µg luciferase mRNA in 50 µl, LNP 50:10:38.5:1.5
# Description: For in vivo administration, mRNA comprising in the 5' to 3' direction a sequence encoding for luciferase of SEQ ID NO:1, was encapsulated into LNPs following the procedure described in Hassett, K. J. et al., "Optimization of Lipid Nanoparticles for Intramuscular Administration of mRNA Vaccines", 2019, Mol. Ther. Nucleic Acid, vol. 15, pp. 1-11. Briefly, the purified mRNAs were first diluted in sodium citrate buffer at pH=4 at a final concentration of 266 µg/ml. Separately, a mixture of the ionizable lipid of the invention:DSPC (Merk 850365P):cholesterol (Sigma C3045):DMG-PEG2000 (Cayman 33945-1) were dissolved into ethanol at the respective molar percentages of 50:10:38.5:1.5, and with a lipid-nitrogen-to-phosphate ratio (N:P) ratio of 5,5:1.
# The mRNA aqueous solution was then carefully added to the ethanol solution, and the resulted solution was homogenized by pipetting up and down for 4-5 times. The resulting LNPs were immediately diluted 1:1 with Tris buffer and dialyzed overnight against Tris buffer containing 15% sucrose. The resulting LNP solution was then collected, and the encapsulated mRNA was assessed by Quant-IT® Ribogreen (Invitrogen R11490) following the manufacturer's instructions.
# Female BALB/c mice (Charles River Laboratories), 8-10-week-old, weighting 18-23 g, were acclimatized to new conditions upon arrival to experimental facilities for 3-7 days. Housing conditions were room temperature 20-24 °C, humidity 50-70 %, and light intensity 60 lux with a light-dark cycle of 12 hours.
# For Firefly Luciferase activity measurement in mice, LNPs produced as indicated above (ionizable lipid:helper lipid: sterol:PEG-modified lipid → 50:10:38.5:1.5) and containing 5 µg of the indicated mRNA in 50 µl final volume, were injected intramuscularly.
# From 4 to 72 hours after RNA-LPN inoculation mice were anaesthetized by inhalation with 4% of isoflurane using a vaporizer. The maintenance of the anaesthesia was performed at 1.5% of isoflurane. Then, D-luciferin (Quimigen, 12507) was injected intraperitoneally at 150 mg/kg, normally ~200 µL of the stock at 15 mg/mL in PBS for a 20 g mouse. Luciferase images were acquired 10 minutes after luciferin inoculation using the IVIS Lumina XRMS Imaging System following manufacturer's instructions.
# [1] = Size distribution, polydispersity and Z-potential of LNPs by dynamic light scattering (Malvern Zetasizer); format: physicochemical; settings: LNPs, standard formulation 50:10:38.5:1.5; DLS
# Description: The LNP solution was then adjusted to a final concentration of mRNA of 100 µg/ml. Size distribution, polydispersity and Z-potential were measured by dynamic light scattering (DLS) using Malvern Zetasizer Advance Lab Blue Label. RNA encapsulation was assessed by Quant-IT® Ribogreen following the manufacturer's instructions.
# [2] = RNA encapsulation efficiency of LNPs by Quant-IT Ribogreen; format: physicochemical; settings: for Encaps. efficiency (%): LNPs with luciferase mRNA, ionizable lipid:non-cationic lipid:sterol:PEG-modified lipid 50:10:38.5:1.5, percentage of RNA entrapped in the LNP; for Encaps. efficiency: Table 8, LNP 50:10:38.5:1.5, luciferase mRNA
# Summary of the method: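 Ribogreen dye assay per manufacturer quantified encapsulated mRNA. Particles were made by adding mRNA in water to the ethanol phase, then 1:1 Tris dilution and overnight dialysis into Tris/15% sucrose; final mRNA set to 100 µg/ml.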
SMILES,protein expression in mice (transfection results) (Female BALB/c mice),Total Flux (Female BALB/c mice) [p·s^-1],P.D.I. [1],Particle size/ Ø (nm) [1] [nm],Z Potential (± D.E.) [mV] [1] [mV],Encaps. efficiency (%) [2] [%],Encaps. efficiency [2] [%]
CCCCCCCC/C=C\CCCCCCCCOC(=O)CCSCCC(NC(=O)CCCCCCC/C=C\CCCCCCCC)C(=O)NCCCN1CCOCC1 (stereo not drawn) [VC-LC-0355],good transfection results,2.39E+07,0.3,242.2,-4.71,81.58,81.6
CCCCCCCCC(CCCCCC)C(=O)NC(CCSCCC(=O)OCCCCCCCC(C)C)C(=O)NCCCN(C)C (stereo not drawn) [VC-LC-0101],–,1.05E+07,–,–,0.00,96.01,96.0
CCCCCCCC/C=C\CCCCCCCC(=O)NC(CCSCCC(=O)OCCCCCCCCCCCCC)C(=O)NCCCN(CCO)CCO (stereo not drawn) [VC-LC-0289],good transfection results,2.329E+07,0.2,207.1,-0.34,89.26,89.3
CCCCCCCCCCCCCCCCCC(=O)NC(CCSCCC(=O)OCC(CCCCCCCCCC)CCCCCCCCCCCC)C(=O)NCCCN1CCOCC1 (stereo not drawn) [VC-LC-0389],good transfection results,–,0.26,218,-9.68,76.40,–
CCCCCCCCC(CCCCCCCC)OC(=O)C(CSCCC(=O)OCCCCCC(C)C)CC(=O)NCCCN1CCOCC1 (stereo not drawn) [VC-LC-0548],–,1.2E+08,0.17,145.5,-8.82,30.22,30.22
CCCCCCCCCCCCCCCCCC(=O)NC(CCSCCC(=O)OCCCCCCCCCCCCC)C(=O)NCCCN1CCOCC1 (stereo not drawn) [VC-LC-0374],good transfection results,–,0.16,174.7,-9.62,70.37,–
CCCCCCCCCCCCCOC(=O)CCSCCC(NC(=O)C(CCCCCC)CCCCCCCC)C(=O)NCC1CCN(C)CC1 (stereo not drawn) [VC-LC-0490],–,1.7E+07,0.18,136.1,0.83,97.16,97.2
CCCCCCCCCCCCCOC(=O)CCSCCC(C(=O)NCCCn1ccnc1)C(=O)OC(CCCCCCCC)CCCCCCCC (stereo not drawn) [VC-LC-0362],–,3.31E+07,0.14,121.1,-13.94,73.55,73.5
CCCCCCCCCCCCCOC(=O)CCSCCC(C(=O)NC1CCN(C)CC1)C(=O)OC(CCCCCCCC)CCCCCCCC (stereo not drawn) [VC-LC-0441],–,2.2E+07,0.12,186.5,-4.04,78.30,78.3
CCCCCCCC/C=C\CCCCCCCC(=O)NC(CCSCCC(=O)OCC(CCCCCCCCCC)CCCCCCCCCCCC)C(=O)NCCCN1CCOCC1 (stereo not drawn) [VC-LC-0353],good transfection results,5.2E+07,0.1,175.8,-8.97,57.26,57.26
CCCCCCCCCCCCCCCCCCCCCCOC(=O)CCSCC(CC(=O)NCCCN1CCOCC1)C(=O)OC(CCCCCCCC)CCCCCCCC (stereo not drawn) [VC-LC-0549],–,2.5E+07,0.27,194.9,-16.95,36.38,36.38
CCCCCCCCCCCCC(CCCCCCCCCC)COC(=O)CCSCC(CC(=O)NCCCN1CCOCC1)C(=O)OC(CCCCCCCC)CCCCCCCC (stereo not drawn) [VC-LC-0553],good transfection results,–,0.22,196.2,-8.66,36.11,–
CCCCCCCC/C=C\CCCCCCCC(=O)NC(CCSCCC(=O)OCC(CCCCCCCCCC)CCCCCCCCCCCC)C(=O)NC1CCN(C)CC1 (stereo not drawn) [VC-LC-0356],–,3.83E+07,0.09,218.9,-10.96,68.27,68.3
CCCCCCCCCCCCCCCCOC(=O)CCSCC(CC(=O)NCCCN1CCOCC1)C(=O)OC(CCCCCCCC)CCCCCCCC (stereo not drawn) [VC-LC-0547],–,1.1E+08,0.18,168,-13.52,31.52,31.52
CCCCCCCCC(CCCCCCCC)OC(=O)C(CSCCC(=O)OCCCCCC(C)C)CC(=O)NCCCn1ccnc1 (stereo not drawn) [VC-LC-0302],–,7.9E+07,0.13,112.3,-9.30,40.58,40.6
CCCCCCCCCCCCCCCCCCOC(=O)CCSCCC(NC(=O)C(CCCCCC)CCCCCCCC)C(=O)NC1CCN(C)CC1 (stereo not drawn) [VC-LC-0215],–,4.23E+07,–,143.5,-13.70,58.34,58.3
CCCCCCCCCCC(CCCCCCCC)C(=O)NC(CCSCCC(=O)OCC(CCCCCC)CCCCCCCC)C(=O)NC1CCN(C)CC1 (stereo not drawn) [VC-LC-0557],–,4.3E+07,0.11,142.5,-6.12,77.19,77.2
CCCCCCCCCCCCCOC(=O)CCSCCC(NC(=O)C(CCCCCCCC)CCCCCCCCCC)C(=O)NCC1CCN(C)CC1 (stereo not drawn) [VC-LC-0507],–,2.29E+07,0.13,151.1,-2.76,95.15,95.2
CCCCCCCCCCCCCCOC(=O)CCSCCC(C(=O)NCCCn1ccnc1)C(=O)OC(CCCCCCCC)CCCCCCCC (stereo not drawn) [VC-LC-0367],–,3.16E+07,0.19,134.6,-15.48,47.47,47.5
CCCCCCCC#CCOC(=O)CCSCCC(C(=O)NC1CCN(C)CC1)C(=O)OC(CCCCCCCC)CCCCCCCC (stereo not drawn) [VC-LC-0442],–,2.95E+07,0.12,171.8,-4.19,87.80,87.8
CCCCCCCCC(CCCCCC)COC(=O)CCSCCC(C(=O)NC1CCN(C)CC1)C(=O)OC(CCCCCCCC)CCCCCCCC (stereo not drawn) [VC-LC-0439],–,2.39E+07,0.1,144.8,-6.48,91.14,91.1
